Experimental data reported in patent US20240254130A1, “SALT AND SOLID FORMS OF A KINASE INHIBITOR” (Blueprint Medicines Corporation, priority 2021, published 2024).
In brackets after ≈: the same amount, converted by molar mass. Where two headings read alike, the source gives them in different places.

Legend:
[1] = Phase 1 single and multiple ascending dose study (safety, tolerability, pharmacokinetics); format: in vivo, human
Method: Compound (I) was administered as the monophosphate salt. Screening of subjects occurred within 28 days prior to (first) dosing. Subjects participated in only 1 cohort in only 1 study part.
Part 1 (SAD): Six (6) cohorts of 8 subjects each (6 active and 2 placebo) were evaluated. […] The first cohort (Cohort S1) included a sentinel group (1 active and 1 placebo) which was dosed at least 24 hours before the remaining 6 subjects (5 active and 1 placebo). Dosing of the remaining 6 subjects in Cohort S1 was conducted following a safety evaluation of the sentinel group.
Blood samples were collected pre-dose on Day-1, on Day 2, and on Day 5 to measure pharmacodynamic (PD) biomarker (tryptase) concentration.
Part 2 (MAD): Four (4) cohorts of 8 subjects each (6 active and 2 placebo) were evaluated.
Plasma samples were collected pre-dose on Days 1-10 for PK assessment. Plasma samples were also collected through 24 hours post-dose on Day 1 and through 96 hours post-dose on Day 10 for PK assessment. Blood samples were collected pre-dose on Day 1, and pre-dose on Days 2, 5, and 9 to measure PD biomarker (tryptase) concentration. […] Safety was assessed according to incidence and severity of adverse events in recipients of Compound (I) as compared with placebo.

[2] = Solubility of Compound (I) free base in solvents at 50° C.; format: physicochemical; details: organic solvent or mixture
[3] = Phase 1 single and multiple ascending dose study (safety, tolerability, pharmacokinetics); format: in vivo, human; details: five SAD cohorts and three MAD cohorts
[4] = Brain penetration potential
[5] = Salt screen: stability on drying and humidity exposure, hygroscopicity; format: physicochemical
Method: A stock solution with concentration of 85 mg/mL was prepared in TFE. Stock solutions of fourteen different counter ions (e.g., benzenesulfonic acid, benzoic acid, phosphoric acid, sulfuric acid, citric acid, glucuronic acid, glutamic acid, hydrochloric acid, malic acid, methanesulfonic acid, Succinic acid, tartaric acid, toluenesulfonic acid, and acetic acid) were prepared in EtOH. 352 μL (30 mg) of the freebase solution was added to each vial. 1.1 and/or 2.2 equivalents of the appropriate counter ion stock solution were added to each vial. The vials were left to stir at 45° C. for two hours before being uncapped and left to evaporate at 40° C. with stirring overnight in atmosphere. The vials were then placed under active vacuum at 50° C. for 3 hours to dry thoroughly. Approximately, 20 volumes (600 μL) of screening solvent were then added to each vial, and the samples were heated to 45° C. with stirring (450 rpm). […] After two hours, the samples were left to stir at room temperature.
Crystalline salts were characterized and evaluated for viability based on melting point, crystallinity, stability on drying and humidity exposure, water solubility, polymorphism, and acceptability of counter-ion.

solubility ([2]; ACN:water (7:3 vol.), sample 82-2, read-out: Solubility (mg/mL) at 50° C.) [mg/mL] | solubility ([2]; t-BuOH, sample 83-1, read-out: Solubility (mg/mL) at 50° C.) [mg/mL] | solubility ([2]; t-BuOH:water (9:1 vol.), sample 83-2, read-out: Solubility (mg/mL) at 50° C.) [mg/mL] | brain penetration potential [4] | behaviour of solids upon humidification (high humidity) [5] | Compound | severity of adverse events ([1]; abdominal pain, decreased appetite, fatigue, headache, nausea, mostly not related to the drug) | increase in systemic exposure with dose ([1]; across SAD and MAD cohorts) | linearity of pharmacokinetics ([1]; across the dose ranges in SAD and MAD cohorts) | half-life ([1]; human, plasma, oral, healthy adult subjects, given as monophosphate salt, read-out: mean half-life (t1/2)) [h] | Vd/F ([1]; human, plasma, oral, healthy adult subjects, read-out: geometric mean Vz/F) [L] | Tmax ([1]; human, plasma, single oral doses 15-200 mg, fasting, healthy adult subjects, given as monophosphate salt, read-out: median Tmax) [h] | findings in laboratory or vital signs parameters ([1]; in vivo) | serious AEs ([1]; in vivo) | steady state expected to be reached ([1]; once-daily oral dosing) [days] | tolerability [3]
8.6 (≈ 16.3 mM) | < 2.6 | < 2.6 | limited |  | C[C@](N)(c1ccc(F)cc1)c1cnc(N2CCN(c3ncnn4cc(-c5cnn(CCO)c5)cc34)CC2)nc1 [Compound (I), (S)-2-(4-(4-(4-(5-(1-amino-1-(4-fluorophenyl)ethyl)pyrimidin-2-yl)piperazin-1-yl)pyrrolo[1,2-f][1,2,4]triazin-6-yl)-1H-pyrazol-1-yl)ethanol] | Only Grade 1 adverse events | dose-proportional increase | linear | 20 to 28 | 753 to 973 | 1.5 to 6 | no clinically relevant findings | No serious AEs were reported | ≤ 7 | well-tolerated
 |  |  |  | deliquescing | tosylate |  |  |  |  |  |  |  |  |  | 
